The source of these data is patent US8637537B2, “Serine/threonine kinase inhibitors” (Genentech, Inc., priority 2011, dated 2014).

Where a name gives a salt, the structure may show the parent alone. Read-outs that look alike come from different tables or passages of the source.

The target in the assay is T1, human recombinant GST-PAK1-KD protein (Homo sapiens, UniProt Q13153).
T1 construct: residues #249-545 of human PAK1, UniProtKP/Swiss Q13153; His6 (N); made in house; host or cells: Sf9 insect cells, pAcGP67 baculovirus expression vector
Kind of assay: GST-PAK1-KD (kinase domain) biochemical assay, microfluidic mobility shift. On the procedure:
Activity of human recombinant GST-PAK1-KD protein was assessed in vitro assay by observing the phosphorylation of a fluorogenic peptide substrate.
The peptide substrate is a consensus sequence based on various PAK1 substrates reported in the scientific literature. […] Incubations were carried out at 22° C. in MatriCal MP101 384-well Metriplates™. […] Following the 30-minute incubation, the assay mixtures were quenched by the addition of 3 μL of 250 mM EDTA, and the substrate and phosphorylated product were separated by capillary electrophoresis and detected using LabChip® Caliper 3000 (Caliper Life Sciences).

Setting [1] is: Table I, PAK1 Ki class, read-out: Ki.

T1 sequence (Q13153 249-545): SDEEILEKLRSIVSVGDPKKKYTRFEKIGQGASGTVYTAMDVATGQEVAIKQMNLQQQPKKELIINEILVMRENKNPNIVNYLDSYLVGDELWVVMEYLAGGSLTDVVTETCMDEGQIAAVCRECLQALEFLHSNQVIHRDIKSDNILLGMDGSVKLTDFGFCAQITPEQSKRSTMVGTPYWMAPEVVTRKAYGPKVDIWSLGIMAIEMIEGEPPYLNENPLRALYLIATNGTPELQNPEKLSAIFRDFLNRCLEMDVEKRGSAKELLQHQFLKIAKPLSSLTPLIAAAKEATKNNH

The Ki is a dissociation constant, usually derived from enzyme kinetics or from competition with a known ligand. For `Clc1cnc(NCc2cccc3[nH]ccc23)nc1Nc1cc(C2CC2)[nH]n1` [I-49, N^2-((1H-indol-4-yl)methyl)-5-chloro-N^4-(5-cyclopropyl-1H-pyrazol-3-yl)pyrimidine-2,4-diamine], the Ki under setting [1] lay within 250 to 1000 nM.
The same measure, in the same setting: the result for `c1cc(CNc2nccc(Nc3cc(C4CCCC4)[nH]n3)n2)c2cc[nH]c2c1` [I-50, N^2-((1H-indol-4-yl)methyl)-N^4-(5-cyclopentyl-1H-pyrazol-3-yl)pyrimidine-2,4-diamine] reads 50 to 250 nM; that for `c1cc(CNc2nccc(Nc3cc(C4CCOC4)[nH]n3)n2)c2cc[nH]c2c1` (stereo not drawn) [I-51, N^2-((1H-indol-4-yl)methyl)-N^4-(5-(tetrahydrofuran-3-yl)-1H-pyrazol-3-yl)pyrimidine-2,4-diamine], 50 to 250 nM; that for `Cc1ccc(CNc2nccc(Nc3cc(C4CC4)[nH]n3)n2)c2cc[nH]c12` [I-52, N^4-(5-Cyclopropyl-1H-pyrazol-3-yl)-N^2-((7-methyl-1H-indol-4-yl)methyl)pyrimidine-2,4-diamine], 50 to 250 nM.
Still for that read-out and setting: the value for `Fc1cc(CNc2nccc(Nc3cc(C4CC4)[nH]n3)n2)c2cc[nH]c2c1` [I-53, N^4-(5-cyclopropyl-1H-pyrazol-3-yl)-N^2-((6-fluoro-1H-indol-4-yl)methyl)pyrimidine-2,4-diamine] was < 50 nM; that for `Cc1cc(Nc2cc(C3CC3)[nH]n2)nc(NCc2cccc3[nH]ccc23)n1` [I-54, N^2-((1H-indol-4-yl)methyl)-N^4-(5-cyclopropyl-1H-pyrazol-3-yl)-6-methylpyrimidine-2,4-diamine] was 50 to 250 nM; that for `C[C@H](c1ccc2[nH]cnc2c1)N(C)c1nccc(Nc2cc(C3CC3)[nH]n2)n1` [I-55, (R)—N^2-(1-(1H-benzo[d]imidazol-5-yl)ethyl)-N^4-(5-cyclopropyl-1H-pyrazol-3-yl)-N^2-methylpyrimidine-2,4-diamine] was 50 to 250 nM.
Still for that read-out and setting: the result for `Cc1cc(Nc2ccnc(NCc3cccc4[nH]ccc34)n2)n[nH]1` [I-56, N^2-((1H-indol-4-yl)methyl)-N^4-(5-methyl-1H-pyrazol-3-yl)pyrimidine-2,4-diamine] reads > 1000 nM.
Regarding `CC(C)c1cc(Nc2ccnc(NCc3cccc4[nH]ccc34)n2)n[nH]1` [I-58, N^2-((1H-indol-4-yl)methyl)-N^4-(5-isopropyl-1H-pyrazol-3-yl)pyrimidine-2,4-diamine], under setting [1], the Ki lay in the range of 50 to 250 nM.
Consider `C[C@@H](Nc1nccc(Nc2cc(C3CC3)[nH]n2)n1)c1ccc2[nH]ccc2c1` [I-60, (R)—N^2-(1-(1H-indol-5-yl)ethyl)-N^4-(5-cyclopropyl-1H-pyrazol-3-yl)pyrimidine-2,4-diamine], for which the Ki (Ki, Table I, PAK1 Ki class) is > 1000 nM.
As to `C[C@H](Nc1nccc(Nc2cc([C@@H]3CC3(F)F)[nH]n2)n1)c1ccc2[nH]cnc2c1` [I-61, N^2—((S)-1-(1H-benzo[d]imidazol-5-yl)ethyl)-N^4-(5-((S)-2,2-difluorocyclopropyl)-1H-pyrazol-3-yl)pyrimidine-2,4-diamine], under setting [1], the Ki lay within 50 to 250 nM.
The same measure, in the same setting: the value for `OCCN(Cc1ccc2[nH]cnc2c1)c1nccc(Nc2cc(C3CC3)[nH]n2)n1` [I-63, 2-(((1H-benzo[d]imidazol-5-yl)methyl)(4-(5-cyclopropyl-1H-pyrazol-3-ylamino)pyrimidin-2-yl)amino)ethanol] was 50 to 250 nM; that for `C[C@H](Nc1nccc(Nc2cc([C@@H]3C[C@@H]3F)[nH]n2)n1)c1ccc2[nH]ccc2c1` [I-64, N^2—((S)-1-(1H-indol-5-yl)ethyl)-N^4-(5-((1S,2S)-2-fluorocyclopropyl)-1H-pyrazol-3-yl)pyrimidine-2,4-diamine] was 50 to 250 nM; that for `C[C@H](Nc1nccc(Nc2cc([C@H]3C[C@H]3F)[nH]n2)n1)c1ccc2[nH]ccc2c1` [I-65, N^2—((S)-1-(1H-indol-5-yl)ethyl)-N^4-(5-((1R,2R)-2-fluorocyclopropyl)-1H-pyrazol-3-yl)pyrimidine-2,4-diamine] was < 50 nM.
As for `C[C@H](Nc1nccc(Nc2cc([C@H]3C[C@H]3F)[nH]n2)n1)c1ccc2[nH]cnc2c1` [I-68, N^2—((S)-1-(1H-benzo[d]imidazol-5-yl)ethyl)-N^4-(5-((1R,2R)-2-fluorocyclopropyl)-1H-pyrazol-3-yl)pyrimidine-2,4-diamine], the Ki under setting [1] was < 50 nM.
Still for that read-out and setting: the result for `C[C@H](Nc1nccc(Nc2cc([C@@H]3C[C@H]3F)[nH]n2)n1)c1ccc2[nH]cnc2c1` [I-69, N^2—((S)-1-(1H-benzo[d]imidazol-5-yl)ethyl)-N^4-(5-((1S,2R)-2-fluorocyclopropyl)-1H-pyrazol-3-yl)pyrimidine-2,4-diamine] reads < 50 nM.
Still for that read-out and setting: the value for `C[C@H](Nc1nccc(Nc2cc([C@H]3C[C@@H]3F)[nH]n2)n1)c1ccc2[nH]cnc2c1` [I-70, N^2—((S)-1-(1H-benzo[d]imidazol-5-yl)ethyl)-N^4-(5-((1R,2S)-2-fluorocyclopropyl)-1H-pyrazol-3-yl)pyrimidine-2,4-diamine] was < 50 nM; that for `CCN(Cc1ccc2[nH]cnc2c1)c1nccc(Nc2cc(C3CC3)[nH]n2)n1` [I-71, N^2-((1H-benzo[d]imidazol-5-yl)methyl)-N^4-(5-cyclopropyl-1H-pyrazol-3-yl)-N^2-ethylpyrimidine-2,4-diamine] was < 50 nM.
Still for that read-out and setting: the result for `C[C@H](Nc1nccc(Nc2cc([C@@H]3C[C@H]3F)[nH]n2)n1)c1ccc2[nH]ccc2c1` [I-72, N^2—((S)-1-(1H-indol-5-yl)ethyl)-N^4-(5-((1S,2R)-2-fluorocyclopropyl)-1H-pyrazol-3-yl)pyrimidine-2,4-diamine] reads < 50 nM; that for `C[C@H](Nc1nccc(Nc2cc([C@H]3C[C@@H]3F)[nH]n2)n1)c1ccc2[nH]ccc2c1` [I-73, N^2—((S)-1-(1H-indol-5-yl)ethyl)-N^4-(5-((1R,2S)-2-fluorocyclopropyl)-1H-pyrazol-3-yl)pyrimidine-2,4-diamine], < 50 nM; that for `FC1(F)C[C@H]1c1cc(Nc2ccnc(NCc3ccc4[nH]cnc4c3Cl)n2)n[nH]1` [I-74, (S)—N^2-((4-chloro-1H-benzo[d]imidazol-5-yl)methyl)-N^4-(5-(2,2-difluorocyclopropyl)-1H-pyrazol-3-yl)pyrimidine-2,4-diamine], < 50 nM.
As to `FC1(F)C[C@@H]1c1cc(Nc2ccnc(NCc3ccc4[nH]cnc4c3Cl)n2)n[nH]1` [I-75, (R)—N^2-((4-chloro-1H-benzo[d]imidazol-5-yl)methyl)-N^4-(5-(2,2-difluorocyclopropyl)-1H-pyrazol-3-yl)pyrimidine-2,4-diamine], under setting [1], the Ki is < 50 nM.
As for `F[C@H]1C[C@H]1c1cc(Nc2ccnc(NCc3ccc4[nH]cnc4c3Cl)n2)n[nH]1` [I-76, N^2-((4-chloro-1H-benzo[d]imidazol-5-yl)methyl)-N^4-(5-((1S,2S)-2-fluorocyclopropyl)-1H-pyrazol-3-yl)pyrimidine-2,4-diamine], the Ki under setting [1] is < 50 nM.
With `F[C@@H]1C[C@@H]1c1cc(Nc2ccnc(NCc3ccc4[nH]cnc4c3Cl)n2)n[nH]1` [I-77, N^2-((4-chloro-1H-benzo[d]imidazol-5-yl)methyl)-N^4-(5-((1R,2R)-2-fluorocyclopropyl)-1H-pyrazol-3-yl)pyrimidine-2,4-diamine], the Ki under setting [1] was < 50 nM.
Still for that read-out and setting: the value for `F[C@@H]1C[C@H]1c1cc(Nc2ccnc(NCc3ccc4[nH]cnc4c3Cl)n2)n[nH]1` [I-78, N^2-((4-chloro-1H-benzo[d]imidazol-5-yl)methyl)-N^4-(5-((1S,2R)-2-fluorocyclopropyl)-1H-pyrazol-3-yl)pyrimidine-2,4-diamine] was < 50 nM; that for `F[C@H]1C[C@@H]1c1cc(Nc2ccnc(NCc3ccc4[nH]cnc4c3Cl)n2)n[nH]1` [I-79, N^2-((4-chloro-1H-benzo[d]imidazol-5-yl)methyl)-N^4-(5-((1R,2S)-2-fluorocyclopropyl)-1H-pyrazol-3-yl)pyrimidine-2,4-diamine] was < 50 nM; that for `FC1(F)CC1c1cc(Nc2ccnc(NCc3cccc4[nH]ccc34)n2)n[nH]1` (stereo not drawn) [I-82, N2—((1H-indol-4-yl)methyl)-N4-(5-(2,2-difluorocyclopropyl)-1H-pyrazol-3-yl)pyrimidine-2,4-diamine] was < 50 nM.
With `C[C@H](Nc1nc(Nc2cc(C3CC3)[nH]n2)cc(C(C)(C)O)n1)c1ccc2[nH]ccc2c1` [I-83, (S)-2-(2-(1-(1H-indol-5-yl)ethylamino)-6-(5-cyclopropyl-1H-pyrazol-3-ylamino)pyrimidin-4-yl)propan-2-ol], the Ki under setting [1] is < 50 nM.
On the same count and under the same terms, the result for `CC(C)(O)c1cc(Nc2cc(C3CC3)[nH]n2)nc(NCc2ccc3[nH]cnc3c2Cl)n1` [I-84, 2-(2-((4-chloro-1H-benzo[d]imidazol-5-yl)methylamino)-6-(5-cyclopropyl-1H-pyrazol-3-ylamino)pyrimidin-4-yl)propan-2-ol] reads < 50 nM; that for `CC(C)(O)c1cc(Nc2cc(C3CC3)[nH]n2)nc(NCc2cccc3[nH]ccc23)n1` [I-85, 2-(2-((1H-indol-4-yl)methylamino)-6-(5-cyclopropyl-1H-pyrazol-3-ylamino)pyrimidin-4-yl)propan-2-ol], 50 to 250 nM.
Turning to `CN(Cc1ccc2[nH]cnc2c1Cl)c1ncc(F)c(Nc2cc(C3CC3)[nH]n2)n1` [I-86, N^2-((4-chloro-1H-benzo[d]imidazol-5-yl)methyl)-N^4-(5-cyclopropyl-1H-pyrazol-3-yl)-5-fluoro-N^2-methylpyrimidine-2,4-diamine], the Ki under setting [1] is < 50 nM.
Turning to `CN(Cc1ccc2[nH]cnc2c1Cl)c1nccc(Nc2cc(C3CC3)[nH]n2)n1` [I-87, N^2-((4-chloro-1H-benzo[d]imidazol-5-yl)methyl)-N^4-(5-cyclopropyl-1H-pyrazol-3-yl)-N^2-methylpyrimidine-2,4-diamine], the Ki is < 50 nM.
Turning to `Fc1cc(CNc2nccc(Nc3cc(C4CCC4)[nH]n3)n2)c2cc[nH]c2c1` [I-88, N^4-(5-Cyclobutyl-1H-pyrazol-3-yl)-N^2-((6-fluoro-1H-indol-4-yl)methyl)pyrimidine-2,4-diamine Formate], the Ki under setting [1] is < 50 nM.
